Measured values taken from ChEMBL document CHEMBL1250444, “Nitric oxide activates TRP channels by cysteine S-nitrosylation” (Nat Chem Biol, 2006).
Activity calls are given as the source filed them. The calls are words filed in the database; no cut-off is given here.

Target: Transient receptor potential cation channel subfamily V member 4 (Homo sapiens) (UniProt Q9HBA0)
Assay: Activation of TRPV4 in HEK cells assessed as increase in Ca2+ level from extracellular space at 300 uM
Type: cell-based
Details: HEK293

Chain of Transient receptor potential cation channel subfamily V member 4 (Homo sapiens) (Q9HBA0 whole entry): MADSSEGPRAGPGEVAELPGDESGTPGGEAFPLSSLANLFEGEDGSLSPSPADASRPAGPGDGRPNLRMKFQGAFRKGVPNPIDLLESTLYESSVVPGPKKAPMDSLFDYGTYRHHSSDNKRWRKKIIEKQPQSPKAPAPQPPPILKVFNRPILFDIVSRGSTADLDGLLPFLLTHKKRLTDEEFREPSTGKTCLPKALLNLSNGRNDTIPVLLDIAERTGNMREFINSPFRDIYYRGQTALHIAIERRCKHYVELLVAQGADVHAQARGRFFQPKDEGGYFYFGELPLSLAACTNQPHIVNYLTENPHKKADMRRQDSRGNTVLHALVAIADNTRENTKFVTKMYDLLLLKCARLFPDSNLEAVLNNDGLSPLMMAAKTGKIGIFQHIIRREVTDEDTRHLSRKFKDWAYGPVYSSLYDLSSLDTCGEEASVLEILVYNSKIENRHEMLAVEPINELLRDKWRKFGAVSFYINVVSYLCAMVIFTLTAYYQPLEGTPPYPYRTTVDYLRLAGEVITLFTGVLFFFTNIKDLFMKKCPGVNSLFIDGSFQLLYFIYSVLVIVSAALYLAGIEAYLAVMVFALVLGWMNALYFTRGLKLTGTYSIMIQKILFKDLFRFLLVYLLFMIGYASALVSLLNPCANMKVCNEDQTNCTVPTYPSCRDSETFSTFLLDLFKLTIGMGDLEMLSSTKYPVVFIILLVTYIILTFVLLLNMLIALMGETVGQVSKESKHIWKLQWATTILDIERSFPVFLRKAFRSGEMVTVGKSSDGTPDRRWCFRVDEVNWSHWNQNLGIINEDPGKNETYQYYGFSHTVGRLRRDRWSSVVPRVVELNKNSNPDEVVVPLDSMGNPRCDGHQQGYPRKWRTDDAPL

Activity: Active
Structure (SMILES): CC(=O)N[C@@H](C(=O)O)C(C)(C)SN=O (racemic)
